For series [1] the following is noted: sepsis animal model, cecal-ligation-puncture; cited from earlier work.
Series [2] deals with cells other than erythroid cells in bone marrow cells. The series can be described thus: FACS analysis of other bone marrow cells (B, T, DC, macrophages, neutrophils, NK) of mice treated with EC-18. It is filed as in vivo, C57BL mouse. The conditions noted are these: C57BL mice, EC-18 orally 50 mg/kg for seven days, CD19, CD4, CD8, CD11c, CD11b/F4, CD11b/ly, CD122 antibodies. The procedure: (§1) Bone marrow cells were isolated from C57BL mice in the following manner. A total of eight 9-week-old C57 BL mice weighting […] were used in the experiment. Three mice were used as control (C1-3). EC-18 was administered orally to five mice at a dose of 50 mg/kg for seven days. Mice were sacrificed by […] and sterilized with 70% alcohol. The tissue of tibia and femur was cut, skin was removed and muscles were taken out. After removing tibia by breaking it in the opposite direction, the sample was washed with 70% alcohol and placed in PBS. After removing the cartilage between femur and tibia, muscles were removed from femur. Femur was separated from pelvis, washed in 70% alcohol and placed in PBS. In order to isolate bone marrow cells from femur, the pelvic end was cut and after filling the 1 ml syringe with culture media, the needle was injected into the cartilage in the knee side to allow bone marrow cells to be pushed out. The culture media containing bone marrow cells was transferred to a tube and the tube was centrifuged. […]
Bone marrow cells isolated from C57BL mice treated with EC-18 (EC1-EC5, EC-18) and untreated mice (C1-C3, con) were compared. […] Cells were incubated with TER-119, CD19, CD4, CD8, CD11c, CD11b/ly, CD122 antibodies (BD Biosciences-Pharmingen, San Jose, CA, USA) for 1 hour and analyzed using FACscan flow cytometer (Becton Dickinson, San Jose, Calif.).
(In general: Flow cytometry measures light scatter and fluorescence of single cells or particles in a stream.)

For series [3] the following is noted: GLP toxicity test; cited from earlier work.
Another series relates to erythroid cells. Briefly: FACS analysis of erythroid cells (TER-119) in bone marrow cells of mice treated with EC-18. The conditions noted are these: C57BL mice, EC-18 orally 50 mg/kg for seven days; untreated mice 31.2%. It is filed as in vivo, C57BL mouse. On the procedure: as §1, with “out.” for “out. The culture media containing bone marrow cells was transferred to a tube and the tube was centrifuged.”
Differentiation and proliferation of erythroid cells in bone marrow cells collected from C57BL mice treated with EC-18 were analyzed by using TER-119 antibody (BD Biosciences-Pharmingen, San Jose, Calif., USA), which is a marker of erythroid cells, and FACS. […] Bone marrow cells isolated by the method of Example 2 were stained by incubating with anti-TER119-FITC antibody and analyzed by using FACscan flow cytometer (Becton Dickinson, San Jose, Calif.).

A further series concerns erythrocytes. Briefly: Concentration of erythrocytes in blood of phenyl hydrazine anemia-induced mice. The conditions noted are these: EC-18 orally 5 mg/ml. It is filed as in vivo, mouse. The procedure:
To observe changes in the level of erythrocytes in mouse blood, anemia-induced mice were prepared by administering phenyl hydrazine (PHZ) intraperitoneally into mice weighing […] at a dose of […]. After administering EC-18 orally to the mice at a dose of 5 mg/ml, blood was collected after 3 days and 13 days. For comparison, a normal group that was not treated with phenyl hydrazine and a control group that was treated with olive oil instead of EC-18 were prepared and blood was collected from the groups after 3 days and 13 days. Collected blood was transferred to EDTA bottle 0.5 ml (Minicollect tube, Greiner bio-one, Austria) and the concentration of erythrocytes (number per pl, unit: 10^6) was measured using a flow cytometer, Auto Hematology Analyzer BC-5300 (Mindray, Shenzhen, China). FIG. 5 is a graph showing the concentration of erythrocytes 3 days after phenyl hydrazine treatment in the normal group, the control group (treated with PHZ and olive oil) and the test group (treated with PHZ and EC-18). FIG. 6 is a graph showing the concentration of erythrocytes 13 days after phenyl hydrazine treatment in the normal group, the control group and the test group.

Entries after “also recorded” stand apart in the source; their conditions may differ.

Take `CCCCC/C=C\C/C=C\CCCCCCCC(=O)OC(COC(C)=O)COC(=O)CCCCCCCCCCCCCCC` (stereo not drawn) [EC-18, 1-palmitoyl-2-linoleoyl-3-acetylglycerol]: in series [1], the “survivability ratio of animals” value is “increases survivability ratio”. Moreover, in series [2], the “ratio of cells other than erythroid cells in bone marrow cells” value is recorded as “maintained same; also recorded: not changed”. In series [3], the toxicity result is on record as “no toxicity”. Moreover, the “percentage of erythroid cells in bone marrow cells (TER-119, FACS)” value with erythroid cells is 41.7%. The “concentration of erythrocytes in blood 3 days after PHZ treatment” value with erythrocytes (vs control (PHZ and olive oil), 3 days) is recorded as “mitigates the reduction of erythrocytes”. Further, the “concentration of erythrocytes in blood 13 days after PHZ treatment” value in the series with erythrocytes (vs normal group, 13 days) is “slightly higher than the normal level”.

Source of the values: patent US20160279088A1, “COMPOSITION FOR PROMOTING DIFFERENTIATION OR PROLIFERATION OF ERYTHROCYTIC CELLS, CONTAINING MONOACETYL DIACYLGLYCEROL COMPOUND AS ACTIVE INGREDIENT” (ENZYCHEM LIFESCIENCES CORPORATION, priority 2013, published 2016).
